This is an account of results in ChEMBL document CHEMBL6177915, “Design, synthesis and mechanistic insights into triclosan derived dimers as potential anti-plasmodials” (RSC Med Chem, 2025).

The first series relates to Plasmodium falciparum. The series is described as follows: Antiplasmodial activity against CQ-resistant Plasmodium falciparum W2 assessed as inhibition of parasite growth incubated for 72 hrs by HRP2 based ELISA. Format: functional, organism-based. Particulars: W2, 72 h.
On to `Oc1cc(Cl)c(NCc2cn(CCCCCCOc3cc(Cl)ccc3Oc3ccc(Cl)cc3Cl)nn2)cc1Oc1ccc(Cl)cc1Cl`, for which the half-maximal inhibitory concentration (IC50) turned out to be 25.7 µM.

Turning to `O=[N+]([O-])c1cc(Oc2ccc(Cl)cc2Cl)c(OCc2cn(CCOc3cc(Cl)ccc3Oc3ccc(Cl)cc3Cl)nn2)cc1Cl`, the IC50 is 28.6 µM.

Turning to `Clc1ccc(Oc2ccc(Cl)cc2OCCCCCCOc2cc(Cl)ccc2Oc2ccc(Cl)cc2Cl)c(Cl)c1`, the 50% inhibitory concentration (IC50) is 20.3 µM.

With `O=[N+]([O-])c1cc(Oc2ccc(Cl)cc2Cl)c(OCc2cn(CCCCCOc3cc(Cl)ccc3Oc3ccc(Cl)cc3Cl)nn2)cc1Cl`, the IC50 came out at 30.7 µM.

As to `O=[N+]([O-])c1cc(Oc2ccc(Cl)cc2Cl)c(OCc2cn(CCCCCCOc3cc(Cl)ccc3Oc3ccc(Cl)cc3Cl)nn2)cc1Cl`, the IC50 stood at 25.4 µM.

In the case of `Oc1cc(Cl)c(NCc2cn(CCCCOc3cc(Cl)ccc3Oc3ccc(Cl)cc3Cl)nn2)cc1Oc1ccc(Cl)cc1Cl`, the IC50 was determined as 21.8 µM.

Regarding `Clc1ccc(Oc2ccc(Cl)cc2OCCCCCn2cc(COc3cc(Cl)ccc3Oc3ccc(Cl)cc3Cl)nn2)c(Cl)c1`, the IC50 was determined as 25.3 µM.

Regarding `O=[N+]([O-])c1cc(Oc2ccc(Cl)cc2Cl)c(OCc2cn(CCCCOc3cc(Cl)ccc3Oc3ccc(Cl)cc3Cl)nn2)cc1Cl`, the IC50 was 25.4 µM.

For a further series, the system named is Plasmodium falciparum. The series is described as follows: Antiplasmodial activity against CQ-susceptible Plasmodium falciparum 3D7 assessed as inhibition of parasite growth incubated for 72 hrs by HRP2 based ELISA. The series is classed as functional, organism-based. The note with it: 3D7, 72 h.
Turning to `Oc1cc(Cl)c(NCc2cn(CCCCCCOc3cc(Cl)ccc3Oc3ccc(Cl)cc3Cl)nn2)cc1Oc1ccc(Cl)cc1Cl`, the IC50 came to 24.3 µM.

For `O=[N+]([O-])c1cc(Oc2ccc(Cl)cc2Cl)c(OCc2cn(CCOc3cc(Cl)ccc3Oc3ccc(Cl)cc3Cl)nn2)cc1Cl`, the half-inhibitory concentration (IC50) was found to be 29.8 µM.

Consider `Clc1ccc(Oc2ccc(Cl)cc2OCCCCCCOc2cc(Cl)ccc2Oc2ccc(Cl)cc2Cl)c(Cl)c1`, for which the IC50 stood at 21.2 µM.

In the case of `O=[N+]([O-])c1cc(Oc2ccc(Cl)cc2Cl)c(OCc2cn(CCCCCOc3cc(Cl)ccc3Oc3ccc(Cl)cc3Cl)nn2)cc1Cl`, the IC50 came to 28.2 µM.

Regarding `O=[N+]([O-])c1cc(Oc2ccc(Cl)cc2Cl)c(OCc2cn(CCCCCCOc3cc(Cl)ccc3Oc3ccc(Cl)cc3Cl)nn2)cc1Cl`, the half-maximal inhibitory concentration (IC50) is 26.3 µM.

As for `Oc1cc(Cl)c(NCc2cn(CCCCOc3cc(Cl)ccc3Oc3ccc(Cl)cc3Cl)nn2)cc1Oc1ccc(Cl)cc1Cl`, the IC50 was found to be 24.2 µM.

Take `Clc1ccc(Oc2ccc(Cl)cc2OCCCCCn2cc(COc3cc(Cl)ccc3Oc3ccc(Cl)cc3Cl)nn2)c(Cl)c1`: the IC50 was 19.3 µM.

For `O=[N+]([O-])c1cc(Oc2ccc(Cl)cc2Cl)c(OCc2cn(CCCCOc3cc(Cl)ccc3Oc3ccc(Cl)cc3Cl)nn2)cc1Cl`, the IC50 was found to be 32.9 µM.

A further series concerns Plasmodium falciparum. The series is described as follows: Resistance index, ratio of IC50 for antiplasmodial activity against CQ-resistant Plasmodium falciparum W2 to IC50 for antiplasmodial activity against CQ-susceptible Plasmodium falciparum 3D7.
Conditions: not given
The series is classed as functional.
`CCNCc1cc(Nc2ccnc3cc(Cl)ccc23)ccc1O` [DESETHYL AMODIAQUINE]: the Ratio IC50 was found to be 6.

As for `Oc1cc(Cl)c(NCc2cn(CCCCCCOc3cc(Cl)ccc3Oc3ccc(Cl)cc3Cl)nn2)cc1Oc1ccc(Cl)cc1Cl`, the Ratio IC50 stood at 1.05.

Turning to `O=[N+]([O-])c1cc(Oc2ccc(Cl)cc2Cl)c(OCc2cn(CCOc3cc(Cl)ccc3Oc3ccc(Cl)cc3Cl)nn2)cc1Cl`, the Ratio IC50 turned out to be 0.95.

`Clc1ccc(Oc2ccc(Cl)cc2OCCCCCCOc2cc(Cl)ccc2Oc2ccc(Cl)cc2Cl)c(Cl)c1`: the Ratio IC50 is 0.95.

`O=[N+]([O-])c1cc(Oc2ccc(Cl)cc2Cl)c(OCc2cn(CCCCCOc3cc(Cl)ccc3Oc3ccc(Cl)cc3Cl)nn2)cc1Cl`: the Ratio IC50 was found to be 1.08.

As to `O=[N+]([O-])c1cc(Oc2ccc(Cl)cc2Cl)c(OCc2cn(CCCCCCOc3cc(Cl)ccc3Oc3ccc(Cl)cc3Cl)nn2)cc1Cl`, the Ratio IC50 worked out at 0.96.

On to `Oc1cc(Cl)c(NCc2cn(CCCCOc3cc(Cl)ccc3Oc3ccc(Cl)cc3Cl)nn2)cc1Oc1ccc(Cl)cc1Cl`, for which the Ratio IC50 turned out to be 0.9.

Regarding `Clc1ccc(Oc2ccc(Cl)cc2OCCCCCn2cc(COc3cc(Cl)ccc3Oc3ccc(Cl)cc3Cl)nn2)c(Cl)c1`, the Ratio IC50 was 1.3.

Regarding `O=[N+]([O-])c1cc(Oc2ccc(Cl)cc2Cl)c(OCc2cn(CCCCOc3cc(Cl)ccc3Oc3ccc(Cl)cc3Cl)nn2)cc1Cl`, the Ratio IC50 stood at 0.77.

Test system in the next series: not listed separately
The series is described as follows: Cytotoxicity against African green monkey Vero E6 cells assessed as cell viability measured after 48 hrs incubation by MTT assay. The series is classed as toxicity, cell-based, Vero C1008. The note with it: chlorocebus sabaeus.
As for `CCNCc1cc(Nc2ccnc3cc(Cl)ccc23)ccc1O` [DESETHYL AMODIAQUINE], the CC50 at 48 h came to 87 µM.

As for `C=C[C@H]1C[N@@]2CC[C@H]1C[C@H]2[C@H](O)c1ccnc2ccc(OC)cc12` [QUININE], the CC50 at 48 h was more than 100 µM.

Consider `CCN(CC)CCCC(C)Nc1ccnc2cc(Cl)ccc12` (stereo not given) [CHLOROQUINE], for which the CC50 at 48 h is more than 100 µM.

With `Oc1cc(Cl)c(NCc2cn(CCCCCCOc3cc(Cl)ccc3Oc3ccc(Cl)cc3Cl)nn2)cc1Oc1ccc(Cl)cc1Cl`, the CC50 at 48 h worked out at 66.3 µM.

Turning to `O=[N+]([O-])c1cc(Oc2ccc(Cl)cc2Cl)c(OCc2cn(CCOc3cc(Cl)ccc3Oc3ccc(Cl)cc3Cl)nn2)cc1Cl`, the CC50 at 48 h came out at 91.8 µM.

Turning to `Clc1ccc(Oc2ccc(Cl)cc2OCCCCCCOc2cc(Cl)ccc2Oc2ccc(Cl)cc2Cl)c(Cl)c1`, the CC50 at 48 h is 63.3 µM.

As for `O=[N+]([O-])c1cc(Oc2ccc(Cl)cc2Cl)c(OCc2cn(CCCCCOc3cc(Cl)ccc3Oc3ccc(Cl)cc3Cl)nn2)cc1Cl`, the CC50 at 48 h was determined as 116 µM.

Consider `O=[N+]([O-])c1cc(Oc2ccc(Cl)cc2Cl)c(OCc2cn(CCCCCCOc3cc(Cl)ccc3Oc3ccc(Cl)cc3Cl)nn2)cc1Cl`, for which the CC50 at 48 h is 54.9 µM.

Consider `Oc1cc(Cl)c(NCc2cn(CCCCOc3cc(Cl)ccc3Oc3ccc(Cl)cc3Cl)nn2)cc1Oc1ccc(Cl)cc1Cl`, for which the CC50 at 48 h was 72.1 µM.

Consider `Clc1ccc(Oc2ccc(Cl)cc2OCCCCCn2cc(COc3cc(Cl)ccc3Oc3ccc(Cl)cc3Cl)nn2)c(Cl)c1`, for which the CC50 at 48 h amounted to 64.6 µM.

As for `O=[N+]([O-])c1cc(Oc2ccc(Cl)cc2Cl)c(OCc2cn(CCCCOc3cc(Cl)ccc3Oc3ccc(Cl)cc3Cl)nn2)cc1Cl`, the CC50 at 48 h came out at 83.9 µM.

Test system in another series: not listed separately
The series is described as follows: Selectivity index, ratio of CC50 for Cytotoxicity against African green monkey Vero E6 cells to IC50 for Antiplasmodial activity against CQ-resistant Plasmodium falciparum W2. Format: toxicity, cell-based. The note with it: read-out: Ratio CC50/IC50.
For `CCNCc1cc(Nc2ccnc3cc(Cl)ccc23)ccc1O` [DESETHYL AMODIAQUINE], the selectivity ratio worked out at 725.

For the compound `C=C[C@H]1C[N@@]2CC[C@H]1C[C@H]2[C@H](O)c1ccnc2ccc(OC)cc12` [QUININE], the selectivity ratio was more than 222.

With `Oc1cc(Cl)c(NCc2cn(CCCCCCOc3cc(Cl)ccc3Oc3ccc(Cl)cc3Cl)nn2)cc1Oc1ccc(Cl)cc1Cl`, the selectivity ratio amounted to 2.6.

As to `O=[N+]([O-])c1cc(Oc2ccc(Cl)cc2Cl)c(OCc2cn(CCOc3cc(Cl)ccc3Oc3ccc(Cl)cc3Cl)nn2)cc1Cl`, the selectivity ratio stood at 3.6.

Regarding `Clc1ccc(Oc2ccc(Cl)cc2OCCCCCCOc2cc(Cl)ccc2Oc2ccc(Cl)cc2Cl)c(Cl)c1`, the selectivity ratio was 3.1.

On to `O=[N+]([O-])c1cc(Oc2ccc(Cl)cc2Cl)c(OCc2cn(CCCCCOc3cc(Cl)ccc3Oc3ccc(Cl)cc3Cl)nn2)cc1Cl`, for which the selectivity ratio turned out to be 3.8.

`O=[N+]([O-])c1cc(Oc2ccc(Cl)cc2Cl)c(OCc2cn(CCCCCCOc3cc(Cl)ccc3Oc3ccc(Cl)cc3Cl)nn2)cc1Cl`: the selectivity ratio turned out to be 2.2.

Regarding `Oc1cc(Cl)c(NCc2cn(CCCCOc3cc(Cl)ccc3Oc3ccc(Cl)cc3Cl)nn2)cc1Oc1ccc(Cl)cc1Cl`, the selectivity ratio stood at 3.3.

On to `Clc1ccc(Oc2ccc(Cl)cc2OCCCCCn2cc(COc3cc(Cl)ccc3Oc3ccc(Cl)cc3Cl)nn2)c(Cl)c1`, for which the selectivity ratio is 2.6.

As for `O=[N+]([O-])c1cc(Oc2ccc(Cl)cc2Cl)c(OCc2cn(CCCCOc3cc(Cl)ccc3Oc3ccc(Cl)cc3Cl)nn2)cc1Cl`, the selectivity ratio came out at 3.3.

Another series concerns Heme. The series is described as follows: Binding affinity to heme assessed as binding constant logK of the compound in HEPES buffer at pH 7.4.
Conditions: not given
Regarding `Oc1cc(Cl)ccc1Oc1ccc(Cl)cc1Cl`, the log K is 5.8.

In the next series the test system is Heme. The series is described as follows: Binding affinity to heme assessed as binding constant logK of the compound in MES buffer at pH 5.6.
Conditions: not given
Regarding `Oc1cc(Cl)ccc1Oc1ccc(Cl)cc1Cl`, the log K worked out at 6.16.

The subject of a further series is Plasmodium falciparum. The series is described as follows: Antiplasmodial activity against Plasmodium falciparum W2.
Conditions: not given
The series is classed as functional, organism-based.
On to `O=C(N/N=C/c1ccc(OCc2cn(CCNc3ccnc4cc(Cl)ccc34)nn2)cc1)c1cnncn1`, for which the IC50 worked out at 0.26 µM.

Test system in another series: not listed separately
The series is described as follows: Inhibition of Plasmodium falciparum enoyl ACP reductase.
Conditions: not given
Compound `N#Cc1ccc(Oc2ccc(Cl)cc2Cl)c(O)c1` registered a half-maximal inhibitory concentration (IC50) of 0.049 µM.

Usually IC50 stands for the point on the concentration scale where inhibition reaches its midpoint. As usually defined, the CC50 is the concentration that lowers cell viability or growth by half.
